# Experimental data published in ChEMBL document CHEMBL1150529, “Synthesis and pharmacological activity of SC-53228, a leukotriene B4 receptor antagonist with high intrinsic potency and selectivity” (Bioorg Med Chem Lett, 1994).
# Active and inactive are the calls of the source. The calls are words filed in the database; no cut-off is given here.
# Legend:
# [1] = biological target: Leukotriene B4 receptor 1 (Homo sapiens, UniProt Q15722); assay: Inhibitory activity against leukotriene B4 receptor
# [2] = species: Homo sapiens; assay: Compound was tested for inhibitory activity against leukotriene B4 induced neutrophil chemotaxis; format: functional
# [3] = species: Cavia porcellus; assay: Oral effective dose for guinea pig LTB4 induced intradermal chemotaxis; format: functional
# [4] = tested on: Mus musculus; assay: Topical effective dose for TPA induced ear inflammation in the mouse; format: functional
# [5] = species: Mus musculus; assay: Oral effective dose for TPA induced ear inflammation in the mouse; format: functional
# [6] = tested on: Rattus norvegicus; assay: Tested for increase in fatty acyl Co-A activity in rats dosed for 7 days at a dose of 200 mg/kg/day; NS means no significant activity; format: functional, organism-based
# Chain of Leukotriene B4 receptor 1 (Q15722 whole entry): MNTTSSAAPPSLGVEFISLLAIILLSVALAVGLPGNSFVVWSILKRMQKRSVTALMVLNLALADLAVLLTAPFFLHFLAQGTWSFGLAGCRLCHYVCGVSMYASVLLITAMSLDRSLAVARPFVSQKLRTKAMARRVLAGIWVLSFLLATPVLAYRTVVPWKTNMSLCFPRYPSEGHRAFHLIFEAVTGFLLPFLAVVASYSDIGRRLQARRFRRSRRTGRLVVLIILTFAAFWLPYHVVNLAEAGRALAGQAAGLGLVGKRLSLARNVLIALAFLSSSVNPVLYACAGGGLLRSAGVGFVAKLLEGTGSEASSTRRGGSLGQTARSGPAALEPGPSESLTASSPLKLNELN
SMILES,IC50 [1] [nM],IC50 [2] [nM],ED50 [3] [mg/kg],ED50 [4] [µg],ED50 [5] [mg/kg],Activity [6]
CCCc1c(OCCCOc2ccc(C(N)=O)c(OC)c2CCC)ccc2c1OC(C(=O)O)CC2 (centres undefined),2.4,2.7,,,,
CCCc1c(OCCCOc2ccc(C(=O)NC)c(OC)c2CC2CC2)ccc2c1O[C@@H](CCC(=O)O)CC2,8.5,10.7,0.2,1200,,
CCCc1c(OCCCOc2ccc(C(=O)NC)c(OC)c2CC2CC2)ccc2c1O[C@H](CCC(=O)O)CC2,14.5,24.4,0.07,200,< 2.5,inactive
CCCc1c(OCCCOc2ccc(C(=O)NC)c(OC)c2CC2CC2)ccc2c1OC(CCC(=O)O)CC2 (centres undefined),10.9,21.9,,,,
CCCc1c(OCCCOc2ccc(C(=O)NC)c(OC)c2CC2CC2)ccc2c1OC(C(=O)O)CC2 (centres undefined),5.3,13,,,,

# Compounds with a lower IC50 [2], results first:
IC50 [1] [nM],IC50 [2] [nM],SMILES,ED50 [3] [mg/kg],ED50 [4] [µg],ED50 [5] [mg/kg],Activity [6]
0.15,< 0.14,CCCc1c(OCCCOc2ccc(C(=O)N(C)C)c(OC)c2CCC)ccc2c1OC(C(=O)O)CC2 (centres undefined),,,,
,1,CCCc1c(OCCCOc2ccc(C(C)=O)c(OC)c2CCC)ccc2c1OC(C(=O)O)CC2 (centres undefined) [SC-41390],1.7,1400,18,
,1.79,CCCCC/C=C\C[C@@H](O)/C=C/C=C/C=C\[C@@H](O)CCCC(=O)O [LEUKOTRIENE_B4],,,,
0.85,1.3,CCCc1c(OCCCOc2ccc(C(=O)NC)c(OC)c2CCC)ccc2c1OC(C(=O)O)CC2 (centres undefined),,,,
0.1,0.11,CCCc1c(OCCCOc2ccc(C(=O)NC(C)C)c(OC)c2CCC)ccc2c1OC(C(=O)O)CC2 (centres undefined),,,,
< 0.1,< 0.16,CCCc1c(OCCCOc2ccc(C(=O)N3CCCC3)c(OC)c2CCC)ccc2c1OC(C(=O)O)CC2 (centres undefined),,,,
